According to patent publication US20030064954A1, “Cationic amphiphilic 1,4-dihydropyridine derivatives useful for delivery of nucleotide containing compounds” (priority 2000, published 2003):

Legend:
D 407 cells = test: Cytotoxicity of amphiphile/DNA complexes, percentage of survived cells; format: cell-based, human; design: concentration or dose not given beside the values
plasmid DNA = test: DNA condensation/complexation, EtBr displacement assay; format: binding
In short: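 Plasmid DNA (0.6 μg/well) was mixed with 0.002% EtBr in 20 mM HEPES–150 mM NaCl pH 7.4, then cationic liposomes were added at various +/− charge ratios.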

[1] = system: CV-1P (African monkey green kidney fibroblasts cells); test: In vitro transfection of plasmid DNA, β-galactosidase activity per well; format: cell-based; conditions: CVI-P; for transfection, result in words: entry spans the charge ratios 8-0.5
In short: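 CV-1P cells (20 000/well) given compound/DNA complexes at various charge ratios, prepared in 50 mM MES–50 mM HEPES–75 mM NaCl pH 7.2, 0.6 μg DNA/well, for 5 h at 37 °C, then 45 h in growth medium. Lysates assayed for β-galactosidase via oNPG hydrolysis at 405 nm against an E. coli enzyme standard; efficiency expressed as percent of Lipofectin.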

[2] = system: D407 (human retinal pigment epithelial) cells; test: as above; format: cell-based; conditions: D 407
Protocol: Transfer of plasmid DNA by various compounds was investigated by using CV-1P (African monkey green kidney fibroblasts cells) and D407 (human retinal pigment epithelial) cells.
The cells were cultured in Dulbecco's modified Eagle's medium (DMEM, Gibco), supplemented with 10% fetal bovine serum (FBS), penicillin/streptomycin (100 units/ml and 100 μg/ml respectively) and 2 mM L-glutamine for D 407 cell line. Cell cultures were maintained at 37° C. in a 7% CO2/air incubator. The cells were collected, counted and seeded in growth medium (100 μl) into 96-well culture plate, 20 000 cells per well. One day later the medium was replaced with fresh medium without serum (150 μl)
The complexes at different derivative/DNA charge ratios for transfection procedure were prepared just before use in 50 mM MES—50 mM HEPES—75 mM NaCl buffer, pH 7.2 in separate 96 well plates. One hour after changing the serum-free medium with 10% serum the complexes were added to the cells at 370C. Dose of DNA per well was 0.6 μg. After 5 h the complexes were removed, the cells were washed with PBS, and the normal growth medium was added. After 45 h of incubation at 37° C. the cells were lysed with 2% Triton X 100, twice deep frozen and the β-galactosidase activity in each well was determined spectrofotometrically with ELx800 automated microplate reader (Bio-Tex Instruments Inc., Winooski, Vt. USA) by monitoring the hydrolysis of o-nitrophenylgalactopyranoside (oNPG) at 405 nm. Purified β-galactosidase from E.coli was used to construct a standard curve and to calculate 9-galactosidase activity in the transfected cells. […] Transfection efficiencies are given as percentage in comparison to transfection efficiency of Lipofectin^R.

CVI-P cells = test: Cytotoxicity of amphiphile/DNA complexes, percentage of survived cells
[3] = amphiphile/DNA +/− charge ratio 0.5
[4] = amphiphile/DNA +/− charge ratio 1
[5] = amphiphile/DNA +/− charge ratio 2
[6] = amphiphile/DNA +/− charge ratio 4
[7] = amphiphile/DNA +/− charge ratio 8

SMILES	complexation, percentage of the maximum fluorescence signal when EtBr bound to DNA in the absence of an amphiphile (plasmid DNA; [3])	complexation, percentage of the maximum fluorescence signal when EtBr bound to DNA in the absence of an amphiphile (plasmid DNA; [4])	complexation, percentage of the maximum fluorescence signal when EtBr bound to DNA in the absence of an amphiphile (plasmid DNA; [5])	complexation, percentage of the maximum fluorescence signal when EtBr bound to DNA in the absence of an amphiphile (plasmid DNA; [6])	complexation, percentage of the maximum fluorescence signal when EtBr bound to DNA in the absence of an amphiphile (plasmid DNA; [7])	transfection efficiency [1, 3]	transfection efficiency [1, 4]	transfection efficiency [1, 5]	cytotoxicity as a percentage of survived cells (CVI-P cells; [3])	cytotoxicity as a percentage of survived cells (CVI-P cells; [4])	cytotoxicity as a percentage of survived cells (CVI-P cells; [5])	cytotoxicity as a percentage of survived cells (CVI-P cells; [6])	cytotoxicity as a percentage of survived cells (CVI-P cells; [7])	melting point	transfection, result in words [1]	also measured
CCCCCCCCCCCCCCCC(=O)OCCOC(=O)C1=C(C)NC(C)=C(C(=O)OCCOC(=O)CCCCCCCCCCCCCCC)C1c1ccc[n+](C)c1.I.[I-] [I, 1′,4′-Dihydro-1,2′,6′-trimethyl-3′,5′-bis[(2-palmitoyloxyethoxy)carbonyl]-3,4′-bipyridinium iodide]	89,4%	87,2%	84,4%	78,3%	73,35%	0,26 β-galactosidase units per well	7,72 β-galactosidase units per well	2,89 β-galactosidase units per well	94,43%	94,83%	91,92%	78,43%	70,75%	105 to 107 °C		cytotoxicity as a percentage of survived cells (D 407 cells; [3]): 90,43%; cytotoxicity as a percentage of survived cells (D 407 cells; [4]): 80,92%; cytotoxicity as a percentage of survived cells (D 407 cells; [5]): 51,14%; cytotoxicity as a percentage of survived cells (D 407 cells; [6]): 31,39%; cytotoxicity as a percentage of survived cells (D 407 cells; [7]): 26,92%; transfection efficiency [1, 6]: 0,73 β-galactosidase units per well; transfection efficiency [1, 7]: 0,78 β-galactosidase units per well; transfection efficiency [2, 3]: 0,83 β-galactosidase units per well; transfection efficiency [2, 4]: 20,04 β-galactosidase units per well; transfection efficiency [2, 5]: 5,72 β-galactosidase units per well; transfection efficiency [2, 6]: 0,89 β-galactosidase units per well; transfection efficiency [2, 7]: 0,88 β-galactosidase units per well
CCCCCCCCCCCCCCCC(=O)OCCCOC(=O)C1=C(C)NC(C)=C(C(=O)OCCCOC(=O)CCCCCCCCCCCCCCC)C1c1ccc[n+](C)c1.I.[I-] [III, 1′,4′-Dihydro-1,2′,6′-trimethyl-3′,5′-bis[(3-palmitoyloxypropoxy)carbonyl]-3,4′-bipyridinium iodide]	93,2%	83,2%	76,7%	74,6%	74,7%				87,86%	81,86%	72,04%	54,84%	68,47%	143 to 146 °C	No signal	
Br.CCCCCCCCCCCCCCCC[n+]1cccc(C2C(C(=O)OCCCCCCCCCCCCCC)=C(C)NC(C)=C2C(=O)OCCCCCCCCCCCCCC)c1.[Br-] [XVII, 1-Hexadecyl-1′,4′-dihydro-2′,6′-dimethyl-3′,5′-bis(tetradecyloxycarbonyl)-3,4′-bipyridinium bromide]	104,4%	97,9%	95,1%	97%	96,5%				105,14%	85,31%	88,20%	67,45%	97,34%	133 to 135 °C	No signal	
Br.CCCCCCCCCCCCCCOC(=O)C1=C(C)NC(C)=C(C(=O)OCCCCCCCCCCCCCC)C1c1ccc[n+](CCCCCCCCC)c1.[Br-] [XIV, 1′,4′-Dihydro-2′,6′-dimethyl-1-nonyl-3′,5′-bis(tetradecyloxycarbonyl)-3,4′-bipyridinium bromide]	100%	96,2%	91,03%	88,9%	93,7%	0,75 β-galactosidase units per well	3,38 β-galactosidase units per well	1,5 β-galactosidase units per well	103,98%	93,16%	51,04%	34,5%	44,62%	124 to 126 °C (dec.)		
CCCCCCCCCCCCCCCCOC(=O)C1=C(C)NC(C)=C(C(=O)OCCCCCCCCCCCCCCCC)C1c1ccc[n+](CC(N)=O)c1.I.[I-] [XX, 1-Carbamoylmethyl-3′,5′-bis(hexadecyloxycarbonyl)-1′,4′-dihydro-2′,6′-dimethyl-3,4′-bipyridinium iodide]	88,0%	81,94%	76,4%	71,5%	66,31%				100,59%	110,76%	59,96%	71,98%	92,09%	140 to 141 °C (dec.)	No signal	
